The values below come from US11498928B2, “Macrocyclic spiroethers as Mcl-1 inhibitors” (ASCENTAGE PHARMA (SUZHOU) CO., LTD., priority 2019, dated 2022).

What is called IC50 is the concentration needed to halve the response being measured.

Assay [1] concerns the target T1, Mcl-1 protein (residues 171-323) (Homo sapiens, UniProt Q07820).
T1 construct: Tag-free Mcl-1 protein (residues 171-323) was used in the FP assay
Nature of the assay: Inhibition of Mcl-1 by fluorescence polarization (FP) competitive binding assay with FAM-Bid tracer. The note with it: 2 nM FAM-Bid, 20 nM Mcl-1, 30 min. In a few lines:
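Ten-point compound titrations compete against 2 nM fluorescein-Bid for 20 nM Mcl-1 (171-323, untagged). Incubation 30 min RT in PBS buffer with BGG and Triton, 5% DMSO final. mP reduction fitted by sigmoidal nonlinear regression for IC50.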
Background: In fluorescence polarisation assays a small probe gives low polarisation when free and higher when bound to something large.

For assay [2], the system named is OPM-2 cells. Nature of the assay: Cell viability assay (OPM-2 cells), CCK-8. It is filed as cell-based. The note with it: Homo sapiens, OPM-2, 24 h, 5% FBS. In a few lines: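 Viability read by CCK-8 absorbance (450 nm, 4 h reagent incubation) after 24 h compound exposure of 20000 OPM-2 cells per well at 37 °C. IC50 fitted by nonlinear regression on vehicle-normalized signal.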

Assay [3] concerns NCI-H929 cells. The assay is described as follows: Cell viability assay (NCI-H929 cells), CCK-8. It is filed as cell-based. The note with it: Homo sapiens, NCI-H929, 24 h, 5% FBS. A digest of the protocol:
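Viability of NCI-H929 cells was measured using the Cell Counting Kit-8. After 24 hrs of compound exposure, 10 μL of CCK-8 solution per well was incubated for 1-4 hours, and absorbance was read at 450 nm on a BioTek Synergy 1MF. Readings were normalized to vehicle (DMSO) cells, and IC50 values were derived by nonlinear regression in GraphPad Prism 6.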

T1 sequence (Q07820 171-323): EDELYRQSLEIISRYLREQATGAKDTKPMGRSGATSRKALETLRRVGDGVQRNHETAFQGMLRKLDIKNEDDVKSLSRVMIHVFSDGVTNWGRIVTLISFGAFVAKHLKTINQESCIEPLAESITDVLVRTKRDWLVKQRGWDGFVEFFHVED

In the case of `C[C@@H]1[C@@H](C)S(=O)(=O)NC(=O)c2ccc3c(c2)N(C[C@@H]2CC[C@H]2[C@@H](OCCN2C[C@@H](C)O[C@@H](C)C2)C2=C[C@H]1C2)C[C@@]1(CCCc2c1ccc(Cl)c2F)CO3` [compound 82, (1S,11′R,12′S,13′R,16′R,16a′R,18a′R,E)-6-chloro-16′-(2-((2S,6R)-2,6-dimethylmorpholino)ethoxy)-5-fluoro-11′,12′-dimethyl-3,4,12′,13′,16′,16a′,17′,18′,18a′,19′-decahydro-1′H,2H,3′H,11′H-spiro[naphthalene-1,2′-[5,7]etheno[13,15]methanocyclobuta[i][1,4]oxazepino[3,4-f][1]thia[2,7]diazacyclohexadecin]-8′(9′H)-one 10′,10′-dioxide], the figures for the IC50 in assay [1], in assay [2] and in assay [3] were 31 nM, 54 nM and 56 nM, respectively.
Regarding `C[C@@H]1[C@@H](C)S(=O)(=O)NC(=O)c2ccc3c(c2)N(C[C@@H]2CC[C@H]2[C@@H](OCCN2C[C@@H](C)N[C@@H](C)C2)C2=C[C@H]1C2)C[C@@]1(CCCc2c1ccc(Cl)c2F)CO3` [compound 83, (1S,11′R,12′S,13′R,16′R,16a′R,18a′R,E)-6-chloro-16′-(2-((3 S,5R)-3,5-dimethylpiperazin-1-yl)ethoxy)-5-fluoro-11′,12′-dimethyl-3,4,12,′13′,16′,16a′,17′,18′,18a′,19′-decahydro-1′H,2H,3′H,11′H-spiro[naphthalene-1,2′-[5,7]etheno[13,15]methanocyclobuta[i][1,4]oxazepino[3,4-f][1]thia[2,7]diazacyclohexadecin]-8′(9′H)-one 10′,10′-dioxide], the 50% inhibitory concentration (IC50) in assay [1] was found to be 25 nM; in assay [2], 164 nM; in assay [3] it was 220 nM.
The corresponding values for `C[C@@H]1[C@@H](C)S(=O)(=O)NC(=O)c2ccc3c(c2)N(C[C@@H]2CC[C@H]2[C@@H](OCCN2C[C@@H](C)N(C)[C@@H](C)C2)C2=C[C@H]1C2)C[C@@]1(CCCc2c1ccc(Cl)c2F)CO3` [compound 84, (1S,11′R,12′S,13′R,16′R,16a′R,18a′R,E)-6-chloro-5-fluoro-11′,12′-dimethyl-16′-(2-((3 S,5R)-3,4,5-trimethylpiperazin-1-yl)ethoxy)-3,4,12′,13′,16′,16a′,17′,18′,18a′,19′-decahydro-1′H,2H,3′H, 11′H-spiro[naphthalene-1,2′-[5,7]etheno[13,15]methanocyclobuta[i][1,4]oxazepino[3,4-f][1]thia[2,7]diazacyclohexadecin]-8′(9′H)-one 10′,10′-dioxide] are 20 nM, 65 nM and 76 nM.
For the compound `C[C@@H]1[C@@H](C)S(=O)(=O)NC(=O)c2ccc3c(c2)N(C[C@@H]2CC[C@H]2[C@@H](OCCN2CCNC(=O)C2)C2=C[C@H]1C2)C[C@@]1(CCCc2c1ccc(Cl)c2F)CO3` [compound 85, (1S,11′R,12′S,13′R,16′R,16a′R,18a′R,E)-6-chloro-5-fluoro-11′,12′-dimethyl-16′-(2-(3-oxopiperazin-1-yl)ethoxy)-3,4,12′,13′,16′,16a′,17′,18′,18a′,19′-decahydro-1′H,2H,3′H, 11′H-spiro[naphthalene-1,2′-[5,7]etheno[13,15]methanocyclobuta[i][1,4]oxazepino[3,4-f][1]thia[2,7]diazacyclohexadecin]-8′(9′H)-one 10′,10′-dioxide], the IC50 in assay [1] came to 20 nM; in assay [2], 124 nM; in assay [3], 73 nM.
For `C[C@@H]1[C@@H](C)S(=O)(=O)NC(=O)c2ccc3c(c2)N(C[C@@H]2CC[C@H]2[C@@H](OCCN2CCN(C)CC2)C2=C[C@H]1C2)C[C@@]1(CCCc2c1ccc(Cl)c2F)CO3` [compound 86, (1S,11′R,12′S,13′R,16′R,16a′R,18a′R,E)-6-chloro-5-fluoro-11′,12′-dimethyl-16′-(2-(4-methylpiperazin-1-yl)ethoxy)-3,4,12′,13′,16′,16a′,17′,18′,18a′,19′-decahydro-1′H,2H,3′H, 11′H-spiro[naphthalene-1,2′-[5,7]etheno[13,15]methanocyclobuta[i][1,4]oxazepino[3,4-f][1]thia[2,7]diazacyclohexadecin]-8′(9′H)-one 10′,10′-dioxide], in that order: 10 nM, 64 nM and 3.8 nM.
The corresponding values for `CC(=O)N1CCN(CCO[C@H]2C3=C[C@@H](C3)[C@H](C)[C@@H](C)S(=O)(=O)NC(=O)c3ccc4c(c3)N(C[C@@H]3CC[C@H]32)C[C@@]2(CCCc3c2ccc(Cl)c3F)CO4)CC1` [compound 87, (1S,11′R,12′S,13′R,16′R,16a′R,18a′R,E)-16′-(2-(4-acetylpiperazin-1-yl)ethoxy)-6-chloro-5-fluoro-11′,12′-dimethyl-3,4,12′,13′,16′,16a′,17′,18′,18a′,19′-decahydro-1′H,2H,3′H, 11′H-spiro[naphthalene-1,2′-[5,7]etheno[13,15]methanocyclobuta[i][1,4]oxazepino[3,4-f][1]thia[2,7]diazacyclohexadecin]-8′(9′H)-one 10′,10′-dioxide] are 8.5 nM, 369 nM and 27 nM.
Regarding `C[C@@H]1[C@@H](C)S(=O)(=O)NC(=O)c2ccc3c(c2)N(C[C@@H]2CC[C@H]2[C@@H](OCCN2CCS(=O)(=O)CC2)C2=C[C@H]1C2)C[C@@]1(CCCc2c1ccc(Cl)c2F)CO3` [compound 88, (1S,11′R,12′S,13′R,16′R,16a′R,18a′R,E)-6-chloro-16′-(2-(1,1-dioxidothiomorpholino)ethoxy)-5-fluoro-11′,12′-dimethyl-3,4,12′,13′,16′,16a′,17′,18′,18a′,19′-decahydro-1′H,2H,3′H,11′H-spiro[naphthalene-1,2′-[5,7]etheno[13,15]methanocyclobuta[i][1,4]oxazepino[3,4-f][1]thia[2,7]diazacyclohexadecin]-8′(9′H)-one 10′,10′-dioxide], the half-maximal inhibitory concentration (IC50) was found to be 13 nM in assay [1], 118 nM in assay [2] and 40 nM in assay [3].
Take `C[C@@H]1[C@@H](C)S(=O)(=O)NC(=O)c2ccc3c(c2)N(C[C@@H]2CC[C@H]2[C@@H](OCCN2CCN(C4CCOCC4)CC2)C2=C[C@H]1C2)C[C@@]1(CCCc2c1ccc(Cl)c2F)CO3` [compound 89, (1S,11′R,12′S,13′R,16′R,16a′R,18a′R)-6-chloro-5-fluoro-11′,12′-dimethyl-16′-(2-(4-(tetrahydro-2H-pyran-4-yl)piperazin-1-yl)ethoxy)-3,4,12′,13′,16′,16a′,17′,18′,18a′,19′-decahydro-1′H,2H,3′H, 11′H-spiro[naphthalene-1,2′-[5,7]etheno[13,15]methanocyclobuta[i][1,4]oxazepino[3,4-f][1]thia[2,7]diazacyclohexadecin]-8′(9′H)-one 10′,10′-dioxide]: the IC50 in assay [1] turned out to be 11 nM; in assay [2], 53 nM; in assay [3], 7.5 nM.
As to `CC(C)N1CCN(CCO[C@H]2C3=C[C@@H](C3)[C@H](C)[C@@H](C)S(=O)(=O)NC(=O)c3ccc4c(c3)N(C[C@@H]3CC[C@H]32)C[C@@]2(CCCc3c2ccc(Cl)c3F)CO4)CC1` [compound 90, (1S,11′R,12′S,13′R,16′R,16a′R,18a′R,E)-6-chloro-5-fluoro-16′-(2-(4-isopropylpiperazin-1-yl)ethoxy)-11′,12′-dimethyl-3,4,12′,13′,16′,16a′,17′,18′,18a′,19′-decahydro-1′H,2H,3′H, 11′H-spiro[naphthalene-1,2′-[5,7]etheno[13,15]methanocyclobuta[i][1,4]oxazepino[3,4-f][1]thia[2,7]diazacyclohexadecin]-8′(9′H)-one 10′,10′-dioxide], the values for the IC50 in assay [1], in assay [2] and in assay [3] were 12 nM, 20 nM and 1.6 nM, respectively.
